From ChEMBL document CHEMBL3885881, “DrugMatrix”

Species: Rattus norvegicus
Assay: DrugMatrix - Regimen: Daily Repeat
Type: toxicity, organism-based, Sprague-Dawley
Parameters: regimen Daily Repeat, gender Male, age 6-8 weeks
Conditions: in vivo, po, route oral GAVAGE, vehicle .5 % CMC; for ABSOLUTE BASOPHIL / ABSOLUTE EOSINOPHIL / ABSOLUTE LYMPHOCYTE / ABSOLUTE MONOCYTE / ABSOLUTE SEGMENTED NEUTROPHIL / BASOPHIL / EOSINOPHIL / ERYTHROCYTE COUNT / HEMATOCRIT / HEMOGLOBIN / LEUKOCYTE COUNT / LYMPHOCYTE / MEAN CORPUSCULAR HEMOGLOBIN / MEAN CORPUSCULAR HEMOGLOBIN CONCENTRATION / MEAN CORPUSCULAR VOLUME / MONOCYTE / NEUTROPHIL / NUCLEATED RED BLOOD CELLS / PLATELET COUNT: tissue Blood; for ALANINE AMINOTRANSFERASE / ALBUMIN / ALKALINE PHOSPHATASE / ASPARTATE AMINOTRANSFERASE / BLOOD UREA NITROGEN / CARBON DIOXIDE / CHLORIDE / CHOLESTEROL / CREATINE PHOSPHOKINASE / CREATININE / GLUCOSE / LACTATE DEHYDROGENASE / LIPASE / PHOSPHORUS / POTASSIUM / SODIUM / TOTAL BILIRUBIN / TOTAL PROTEIN / URIC ACID: tissue Plasma
[1] = 100 mg/kg, 120 h, dose level Low, time 5 day
[2] = 1500 mg/kg, 72 h, dose level High, time 3 day
[3] = 1500 mg/kg, 120 h, dose level High, time 5 day

For `O=C(O)CCc1nc(-c2ccccc2)c(-c2ccccc2)o1` [OXAPROZIN], the “ABSOLUTE BASOPHIL” value [1] was 0 CELLS/uL, the “ABSOLUTE EOSINOPHIL” value [1] was 50.33 CELLS/uL and the “ABSOLUTE LYMPHOCYTE” value [1] was 11457 CELLS/uL. The “ABSOLUTE MONOCYTE” value [1] was 176 CELLS/uL, the “ABSOLUTE SEGMENTED NEUTROPHIL” value [1] was 1916.67 CELLS/uL and the BASOPHIL [1] was 0%. For the same compound, the EOSINOPHIL [1] was 0.33%, the “ERYTHROCYTE COUNT” value [1] was 5.42 x10E6/uL and the HEMATOCRIT [1] was 34.23%. For the same compound, the HEMOGLOBIN [1] was 13.93 G/DL, the “LEUKOCYTE COUNT” value [1] was 13.6 x10E3/uL and the LYMPHOCYTE [1] was 84%. The “MEAN CORPUSCULAR HEMOGLOBIN” value [1] was 25.7 pg, the “MEAN CORPUSCULAR HEMOGLOBIN CONCENTRATION” value [1] was 40.67 G/DL and the “MEAN CORPUSCULAR VOLUME” value [1] was 63.1 fL. For the same compound, the MONOCYTE [1] was 1.33%, the NEUTROPHIL [1] was 14.33% and the “NUCLEATED RED BLOOD CELLS” value [1] was 0 /100WBC. The “PLATELET COUNT” value [1] was 1354 x10E3/uL, the “ALANINE AMINOTRANSFERASE” value [1] was 54.67 u/L and the ALBUMIN [1] was 4.3 G/DL. For the same compound, the “ALKALINE PHOSPHATASE” value [1] was 418.33 u/L, the “ASPARTATE AMINOTRANSFERASE” value [1] was 81.67 u/L and the “BLOOD UREA NITROGEN” value [1] was 16 mg/dL. For the same compound, the “CARBON DIOXIDE” value [1] was 26.67 mmol/L, the CHLORIDE [1] was 102.67 MEQ/L and the CHOLESTEROL [1] was 57.67 mg/dL. The “CREATINE PHOSPHOKINASE” value [1] was 284.33 u/L, the CREATININE [1] was 0.2 mg/dL and the GLUCOSE [1] was 154 mg/dL. For the same compound, the “LACTATE DEHYDROGENASE” value [1] was 102.67 u/L, the LIPASE [1] was 9.33 u/L and the PHOSPHORUS [1] was 12.87 mg/dL. The POTASSIUM [1] was 6.84 MEQ/L, the SODIUM [1] was 145.4 MEQ/L and the “TOTAL BILIRUBIN” value [1] was 0.23 mg/dL. For the same compound, the “TOTAL PROTEIN” value [1] was 6.2 G/DL, the “URIC ACID” value [1] was 1.83 mg/dL and the “ABSOLUTE BASOPHIL” value [2] was 0 CELLS/uL. For the same compound, the “ABSOLUTE EOSINOPHIL” value [2] was 0 CELLS/uL, the “ABSOLUTE LYMPHOCYTE” value [2] was 11713.67 CELLS/uL and the “ABSOLUTE MONOCYTE” value [2] was 379.33 CELLS/uL. For the same compound, the “ABSOLUTE SEGMENTED NEUTROPHIL” value [2] was 2140.33 CELLS/uL, the BASOPHIL [2] was 0% and the EOSINOPHIL [2] was 0%. The “ERYTHROCYTE COUNT” value [2] was 5.87 x10E6/uL, the HEMATOCRIT [2] was 37.03% and the HEMOGLOBIN [2] was 14.47 G/DL. The “LEUKOCYTE COUNT” value [2] was 14.23 x10E3/uL, the LYMPHOCYTE [2] was 82.33% and the “MEAN CORPUSCULAR HEMOGLOBIN” value [2] was 24.63 pg. The “MEAN CORPUSCULAR HEMOGLOBIN CONCENTRATION” value [2] was 39.07 G/DL, the “MEAN CORPUSCULAR VOLUME” value [2] was 63.17 fL and the MONOCYTE [2] was 2.67%. The NEUTROPHIL [2] was 15%, the “NUCLEATED RED BLOOD CELLS” value [2] was 0 /100WBC and the “PLATELET COUNT” value [2] was 1318.33 x10E3/uL. For the same compound, the “ALANINE AMINOTRANSFERASE” value [2] was 83 u/L, the ALBUMIN [2] was 4.77 G/DL and the “ALKALINE PHOSPHATASE” value [2] was 581 u/L. The “ASPARTATE AMINOTRANSFERASE” value [2] was 86.67 u/L, the “BLOOD UREA NITROGEN” value [2] was 17.33 mg/dL and the “CARBON DIOXIDE” value [2] was 31.33 mmol/L. For the same compound, the CHLORIDE [2] was 99.33 MEQ/L, the CHOLESTEROL [2] was 70 mg/dL and the “CREATINE PHOSPHOKINASE” value [2] was 206 u/L. The CREATININE [2] was 0.24 mg/dL, the GLUCOSE [2] was 118 mg/dL and the “LACTATE DEHYDROGENASE” value [2] was 247.33 u/L. It also gave an LIPASE [2] of 8.67 u/L, a PHOSPHORUS [2] of 11.17 mg/dL and a POTASSIUM [2] of 5.96 MEQ/L. The SODIUM [2] was 145.9 MEQ/L, the “TOTAL BILIRUBIN” value [2] was 0.3 mg/dL and the “TOTAL PROTEIN” value [2] was 5.73 G/DL. For the same compound, the “URIC ACID” value [2] was 1.37 mg/dL, the “ABSOLUTE BASOPHIL” value [3] was 0 CELLS/uL and the “ABSOLUTE EOSINOPHIL” value [3] was 0 CELLS/uL. For the same compound, the “ABSOLUTE LYMPHOCYTE” value [3] was 19502.67 CELLS/uL, the “ABSOLUTE MONOCYTE” value [3] was 68 CELLS/uL and the “ABSOLUTE SEGMENTED NEUTROPHIL” value [3] was 3096 CELLS/uL. For the same compound, the BASOPHIL [3] was 0%, the EOSINOPHIL [3] was 0% and the “ERYTHROCYTE COUNT” value [3] was 5.71 x10E6/uL. The HEMATOCRIT [3] was 35.9%, the HEMOGLOBIN [3] was 14.6 G/DL and the “LEUKOCYTE COUNT” value [3] was 22.67 x10E3/uL. For the same compound, the LYMPHOCYTE [3] was 86.33%, the “MEAN CORPUSCULAR HEMOGLOBIN” value [3] was 25.63 pg and the “MEAN CORPUSCULAR HEMOGLOBIN CONCENTRATION” value [3] was 40.7 G/DL. The “MEAN CORPUSCULAR VOLUME” value [3] was 63 fL, the MONOCYTE [3] was 0.33% and the NEUTROPHIL [3] was 13.33%. For the same compound, the “NUCLEATED RED BLOOD CELLS” value [3] was 0.33 /100WBC, the “PLATELET COUNT” value [3] was 1504 x10E3/uL and the “ALANINE AMINOTRANSFERASE” value [3] was 136.67 u/L. For the same compound, the ALBUMIN [3] was 4.57 G/DL, the “ALKALINE PHOSPHATASE” value [3] was 427.67 u/L and the “ASPARTATE AMINOTRANSFERASE” value [3] was 109.67 u/L. For the same compound, the “BLOOD UREA NITROGEN” value [3] was 17.67 mg/dL, the “CARBON DIOXIDE” value [3] was 25.33 mmol/L and the CHLORIDE [3] was 98.67 MEQ/L. The CHOLESTEROL [3] was 83.67 mg/dL, the “CREATINE PHOSPHOKINASE” value [3] was 243 u/L and the CREATININE [3] was 0.35 mg/dL. For the same compound, the GLUCOSE [3] was 126 mg/dL, the “LACTATE DEHYDROGENASE” value [3] was 170.67 u/L and the LIPASE [3] was 11.33 u/L. It also gave a PHOSPHORUS [3] of 11.23 mg/dL, a POTASSIUM [3] of 6.06 MEQ/L and an SODIUM [3] of 143.63 MEQ/L. The “TOTAL BILIRUBIN” value [3] was 0.27 mg/dL, the “TOTAL PROTEIN” value [3] was 6 G/DL and the “URIC ACID” value [3] was 1.83 mg/dL.
